Patent US12691143B2, “Method for treating cancer” (priority 2020, dated 2026)
Entries after “also recorded” stand apart in the source; their conditions may differ.

Key:
[1] = test system: KU19-19 xenografts (NER-proficient); test: Xenograft study; format: in vivo, mice; conditions: 1 mg/kg irofulven
Protocol: (§1) Six week old female athymic nude mice, NU/J (Stock No: 002019) were purchased from Jackson Laboratory (Bar Harbor, ME) and housed at the Dana-Farber Cancer Institute Animal Resources Facility. All animal experiments were performed in accordance with an IACUC-approved protocol. At 7-10 weeks of age, mice were anesthetized with isoflurane and subcutaneously injected on the left flank with 3 million KE1 or 1 million KU19-19 cells mixed 1:1 with Matrigel (BD Biosciences; Mississauga, ON) in PBS. Tumor size was measured with a digital caliper twice weekly and calculated using the formula: (L×W^2)×½. Drug treatments were administered when the average tumor volume reached a minimum of 100 mm^3. Irofulven was prepared in PBS to a stock concentration of 200 μg/ml and was delivered intraperitoneally (IP) twice weekly at doses of 250 μg/kg, 500 μg/kg or 1 mg/kg for a total of 5 injections or until the tumor reached a pre-specified protocol endpoint. Control mice were injected with PBS alone. At the end of the experiment, mice were sacrificed and tumors were excised for tumor weight measurements and imaging.
(§2) Six week old female athymic nude mice, NU/J (Stock No: 002019) were purchased from Jackson Laboratory (Bar Harbor, ME) and housed at the Dana-Farber Cancer Institute Animal Resources Facility. All animal experiments were performed in accordance with an IACUC-approved protocol. At 7-10 weeks of age, mice were anesthetized with isoflurane and subcutaneously injected on the left flank with 3 million KE1 or 1 million KU19-19 cells mixed 1:1 with Matrigel (BD Biosciences; Mississauga, ON) in PBS. Tumor size was measured with a digital caliper twice weekly and calculated using the formula:
(§3) [formula] Drug treatments were administered when the average tumor volume reached a minimum of 100 mm^3. Irofulven was prepared in PBS to a stock concentration of 200 μg/ml and was delivered intraperitoneally (IP) twice weekly at doses of 250 μg/kg, 500 μg/kg or 1 mg/kg for a total of 5 injections or until the tumor reached a pre-specified protocol endpoint. Control mice were injected with PBS alone. At the end of the experiment, mice were sacrificed and tumors were excised for tumor weight measurements and imaging.

[2] = test system: KE1 xenografts (NER-deficient); test: Xenograft study; format: in vivo, mice
Protocol: as §1, §2, §3

[3] = test system: SW1710 bladder cancer cell line; test: In vitro drug sensitivity assay / crystal violet staining; format: cell-based; conditions: SW1710 compared with other bladder cancer cell lines
Protocol: (§4) Cells were seeded in either 96-well (5,000 cells/well) or 24-well (20,000 cells/well) plates. The following day, irofulven and cisplatin stock solutions were serially diluted in media and added to cells. After 48 to 72 hours, media was removed and CellTiter-Glo® reagent (Promega; Madison, WI) was added. Plates were scanned using a luminescence microplate reader (BioTek). Survival at each drug concentration was plotted as a percentage of survival in drug-free media with error bars representing the standard deviation of at least three experiments.
(§5) For crystal violet imaging experiments, cells were seeded in 6-well plates (100,000-200,000 cells/well) with 15 nM siRNA transfection mixture (as detailed above). At 24 hours, fresh media containing irofulven or PBS was added and the cells were incubated for an additional 72 hours. Cells were then fixed in formalin solution for 30 minutes and stained with crystal violet prepared in equal volumes of methanol and water. Excess crystal violet was removed by washing with PBS, and plates were then dried and imaged.

[4] = test system: bladder cancer cell lines; test: In vitro drug sensitivity assay / crystal violet staining, cell line panel; format: cell-based; conditions: most bladder cancer cell lines
Protocol: as §4, §5

[5] = test system: variety of tumor types, biomarker-unselected populations; conditions: single agent, Phase I/II clinical trials; cited from earlier work
[6] = test system: KE1 bladder cancer cell line (ERCC2-mutated derivative of KU19-19, NER-deficient); test: In vitro drug sensitivity assay (CellTiter-Glo); format: cell-based; conditions: NER-deficient KE1, compared with isogenic KU19-19; 48 to 72 hours
Source text: Bladder cancer cell lines were purchased from ATCC. The KE1 bladder cancer cell line is a derivative of KU19-19 in which an ERCC2 T484 mutation has been introduced by CRISPR/Cas9 gene editing as previously described (6). The MDA-MB-468 breast cancer cell line and its ERCC4-complemented derivative have been previously described (35). Small interfering RNAs (siRNAs) targeting specific NER genes as well as a non-targeting siRNA (siNTC) were purchased from Integrated DNA Technologies Inc. (Coralville, IA, USA; see Table 9 for sequences). Cells were seeded in 6-well plates and grown to 50% confluency. A transfection mixture containing siRNA diluted to a final concentration of 30 nM in Opti-MEM media containing Lipofectamine 3000 (Life Technologies; Carlsbad, CA) was then added to cells. After 48 hours, cells were trypsinized and re-aliquoted to separate wells and transfected with 15 nM siRNA for 24 hours immediately prior to viability assays performed as described below. […]
Cells were seeded in either 96-well (5,000 cells/well) or 24-well (20,000 cells/well) plates. […] Plates were scanned using a luminescence microplate reader (BioTek). […]

[7] = test system: KU19-19 bladder cancer cell line (NER-proficient); test: In vitro drug sensitivity assay (CellTiter-Glo); format: cell-based; conditions: NER-proficient KU19-19; 48 to 72 hours
Protocol: as §4

[8] = test system: cisplatin-resistant MDA-MB-468 cell line; test: In vitro drug sensitivity assay in cisplatin-resistant derivative; format: cell-based; conditions: cisplatin-resistant derivative of NER-deficient MDA-MB-468
Protocol: as §4
Platinum-based chemotherapy is a first-line treatment for numerous solid malignancies including bladder cancer, but platinum resistance frequently occurs and represents a challenging clinical problem. Although a variety of platinum resistance mechanisms have been characterized, restoration or upregulation of DNA repair is a common mechanism of resistance, particularly in HR-deficient breast and ovarian tumors^33. Mechanisms of platinum resistance in NER deficient tumors have not been characterized, and we wished to determine if acquired resistance to cisplatin would confer cross-resistance to irofulven through restoration of NER. To test this, we derived cisplatin resistance in the NER-deficient MDA-MB-468 cell line by gradual exposure to escalating doses of cisplatin (Methods).

With `CC1=C(CO)C2=C(C)C3(CC3)[C@@](C)(O)C(=O)C2=C1` [irofulven] the tumor response [1] was “no response; also recorded: did not show response”, the tumor dose response ([2]; 250 μg/kg, 500 μg/kg or 1 mg/kg IP twice weekly) was “strong irofulven dose response” and the “tumor response (tumor volume)” value ([2]; 1 mg/kg IP twice weekly, total of five doses) was “near complete tumor regression”. The xenograft weights ([2]; irofulven-treated vs untreated mice) was “significantly lower”, the irofulven sensitivity [3] was “much higher sensitivity” and the irofulven sensitivity [4] was “resistant; also recorded: minimal sensitivity”. For the same compound, the tolerability [5] was “well-tolerated”, the “drug sensitivity (survival as percentage of drug-free media)” value [6] was “significantly more sensitive; also recorded: highly sensitive; also recorded: increased sensitivity” and the “drug sensitivity (survival as percentage of drug-free media)” value [7] was “minimal sensitivity”. The irofulven sensitivity [8] was “remains sensitive; also recorded: highly sensitive”.
